According to patent US8247448B2, “Butenoic acid derivatives, processes for the preparation thereof, pharmaceutical compositions comprising them, and use for the treatment of dyslipidaemia, atherosclerosis and diabetes” (Merck Patent GmbH, priority 2003, dated 2012):

Columns and labels:
Type in all cases: cell-based
[1] = target: T1, chimeric protein PPARα-Gal4 (Homo sapiens, UniProt Q07869); test: PPAR activation, Gal4 chimera luciferase reporter gene test in co-transfected CV-1 cells; conditions: 50 μM, CV-1 cells (monkey kidney cells), 18 hours contact
T1 construct: Gal4 (fusion partner); expressed in transfected cells; host or cells: CV-1 cells (monkey kidney cells)
T1 sequence (Q07869 239-466 limits assumed): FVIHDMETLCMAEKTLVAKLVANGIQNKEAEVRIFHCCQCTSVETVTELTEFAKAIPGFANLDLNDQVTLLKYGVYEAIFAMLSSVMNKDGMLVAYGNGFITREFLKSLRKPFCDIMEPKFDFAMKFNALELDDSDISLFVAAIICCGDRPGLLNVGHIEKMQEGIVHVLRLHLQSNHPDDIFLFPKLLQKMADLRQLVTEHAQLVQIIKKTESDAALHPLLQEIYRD
Protocol: (§1) The measurement of the PPAR activation was performed according to a technique described by Lehmann et al. (J. Biol. Chem., 270, (1995), 12953-12956).
(§2) CV-1 cells (monkey kidney cells) are co-transfected with an expression vector for the chimeric proteins PPARα-Gal4 or PPARγ-Gal4 and with a “reporter” plasmid that allows the expression of the luciferase gene placed under the control of a promoter containing Gal4 response elements.
(§3) The cells are plated into 96-well microplates and co-transfected using a commercial reagent with the reporter plasmid (pG5-tk-pGL3) and the expression vector for the chimeric protein ([…]). After incubating for 4 hours, whole culture medium (comprising 10% foetal calf serum) is added to the wells. After 24 hours, the medium is removed and replaced with whole medium comprising the test products (50 μM final). The products are left in contact with the cells for 18 hours. The cells are then lysed and the luciferase activity is measured using a luminometer. A PPAR activation factor can then be calculated by means of activation of the expression of the reporter gene induced by the product (relative to the control cells that have not received any product).

[2] = system: chimeric protein PPARγ-Gal4; test: as above; conditions: 50 μM, CV-1 cells (monkey kidney cells), 18 hours contact
Protocol: as §1, §2, §3

Gal4 alone = test: Control: luciferase reporter test with vector expressing Gal4 alone (no PPAR ligand binding domain); conditions: CV-1 cells; in the presence of the product
Protocol: CV-1 cells (monkey kidney cells) are co-transfected with an expression vector for the chimeric proteins PPARα-Gal4 or PPARγ-Gal4 and with a “reporter” plasmid that allows the expression of the luciferase gene placed under the control of a promoter containing Gal4 response elements. The cells are plated into 96-well microplates and co-transfected using a commercial reagent with the reporter plasmid (pG5-tk-pGL3) and the expression vector for the chimeric protein ([…]). After incubating for 4 hours, whole culture medium (comprising 10% foetal calf serum) is added to the wells. After 24 hours, the medium is removed and replaced with whole medium comprising the test products (50 μM final). The products are left in contact with the cells for 18 hours. The cells are then lysed and the luciferase activity is measured using a luminometer. A PPAR activation factor can then be calculated by means of activation of the expression of the reporter gene induced by the product (relative to the control cells that have not received any product). [drawing 12] at a concentration of 50 μM, activates the chimeric protein PPARα-Gal-4 by a factor of 2.3, and the chimeric protein […] by a factor of 6.4. In the absence of the binding domain for the PPAR α or γ ligand (vector expressing Gal4 alone), the luciferase activity measured in the presence of this product is zero.

## CCOC(=O)C(/C=C/c1ccccc1)Oc1ccccc1 (stereo not drawn)
[1]
  activation factor of the chimeric protein PPARα-Gal-4 (reporter gene expression relative to control cells): 2.3
[2]
  activation factor of the chimeric protein PPARα-Gal4 (second mention; reporter gene expression relative to control cells): 6.4
Gal4 alone
  luciferase activity in the absence of the binding domain for the PPAR α or γ ligand (vector expressing Gal4 alone): zero
